This is an account of results in patent publication US12692241B2, “Substituted triazine compound” (Nico Therapeutics, Inc., priority 2021, dated 2026).

This assay deals with IL-1β production in THP-1 cells (LPS and ATP; NLRP3 inflammasome activation). Kind of assay: THP-1 IL-1β production inhibitory test. Conditions: Homo sapiens, THP-1, 2 h, PMA-differentiated THP-1 cells, LPS 50 ng/mL and ATP 5 mM, 2 hours, ELISA; read-out: IC50 (nM), IL-1β production. In kind it is cell-based, human. The method, then: THP-1 IL-1β Production Inhibitory Test
To THP-1 cells, 50 ng/mL PMA (phorbol myristate acetate, SIGMA, P1585) was added at 37° C. and then the cells were cultured for 2 days. […] The cells were cultured at 37° C. for 15 minutes. LPS (lipopolysaccharide, SIMGA, L2880) and ATP (adenosine triphosphate, SIGMA, A2383) were added such that the final concentrations of them became 50 ng/mL and 5 mM, respectively. The cells were cultured at 37° C. for 2 hours. The supernatant was collected and the concentration of IL-1β was measured by ELISA (DuoSet ELISA human IL-1β, R&D Systems, DY201). The concentration of IL-1β was plotted against the logarithm of the concentration of the test compound, and the IC50 value was calculated by sigmoidal Emax model nonlinear regression analysis.
A general note: In an ELISA, binding on a coated surface is turned into a signal by an enzyme label.

Each structure is given as a SMILES string.

Broadly, the IC50 is the concentration that inhibits the measured activity by half. With `Cc1nc(N[C@@H]2CCCC[C@H]2O)nnc1-c1ccc(C(F)(F)F)cc1O` [Example 1, 2-(3-{[(1R,2R)-2-hydroxycyclohexyl]amino}-5-methyl-1,2,4-triazin-6-yl)-5-(trifluoromethyl)phenol], the IC50 turned out to be 7.6 nM.

In the case of `Cc1nc(NC[C@H](C)CO)nnc1-c1ccc(C(F)(F)F)cc1O` [Example 2], the IC50 came to 32 nM.

Regarding `Cc1nc(NCCCO)nnc1-c1ccc(C(F)(F)F)cc1O` [Example 3], the IC50 was found to be 69 nM.

As for `Cc1nc(NC[C@@H](C)O)nnc1-c1ccc(C(F)(F)F)cc1O` [Example 4], the IC50 stood at 35 nM.

Take `Cc1nc(N[C@@H]2CCC[C@H]2O)nnc1-c1ccc(C(F)(F)F)cc1O` [Example 5]: the IC50 came out at 21 nM.

Turning to `Cc1nc(NC2CCCCC2)nnc1-c1ccc(C(F)(F)F)cc1O` [Example 6], the IC50 was 26 nM.

Regarding `Cc1nc(N[C@H]2CCC(F)(F)C2)nnc1-c1ccc(C(F)(F)F)cc1O` [Example 7], the IC50 was 28 nM.

For `Cc1nc(NC2CC(C)(O)C2)nnc1-c1ccc(C(F)(F)F)cc1O` (centres unmarked) [Example 8], the IC50 came out at 6.9 nM.

Regarding `Cc1nc(NCC(C)(C)CO)nnc1-c1ccc(C(F)(F)F)cc1O` [Example 9], the IC50 was found to be 59 nM.

Take `CO[C@H](C)CNc1nnc(-c2ccc(C(F)(F)F)cc2O)c(C)n1` [Example 10]: the concentration for half-maximal inhibition (IC50) worked out at 40 nM.

As to `Cc1nc(N[C@@H]2CCOC[C@H]2O)nnc1-c1ccc(C(F)(F)F)cc1O` [Example 11], the IC50 is 15 nM.

Take `Cc1nc(NC2CCS(=O)(=O)CC2)nnc1-c1ccc(C(F)(F)F)cc1O` [Example 12]: the IC50 is 53 nM.

With `Cc1nc(N[C@H]2C[C@](C)(O)C2)nnc1-c1ccc(C(F)(F)F)cc1O` [Example 13], the IC50 amounted to 260 nM.

On to `CC[C@@H](O)CNc1nnc(-c2ccc(C(F)(F)F)cc2O)c(C)n1` [Example 14], for which the IC50 was 62 nM.

For the compound `Cc1nc(NCC2(CO)CCC2)nnc1-c1ccc(C(F)(F)F)cc1O` [Example 15], the IC50 stood at 100 nM.

Regarding `Cc1nc(N[C@@H]2COC[C@H]2O)nnc1-c1ccc(C(F)(F)F)cc1O` [Example 16], the IC50 was determined as 88 nM.

As for `Cc1nc(NCC2(O)CCC2)nnc1-c1ccc(C(F)(F)F)cc1O` [Example 17], the IC50 is 66 nM.

For the compound `Cc1nc(NC[C@@H]2CCCO2)nnc1-c1ccc(C(F)(F)F)cc1O` [Example 18], the IC50 is 88 nM.

On to `Cc1nc(N[C@@H]2CCCC[C@H]2O)nnc1-c1ccc(Cl)cc1O` [Example 19], for which the IC50 was found to be 7.4 nM.

As for `Cc1nc(N[C@H]2CCCC[C@H]2O)nnc1-c1ccc(C(F)(F)F)cc1O` [Example 20], the IC50 came out at 34 nM.

Consider `Cc1nc(N[C@@H]2COCC[C@H]2O)nnc1-c1ccc(C(F)(F)F)cc1O` [Example 21], for which the IC50 came out at 290 nM.

For `Cc1nc(NC2CC3(CC(O)C3)C2)nnc1-c1ccc(C(F)(F)F)cc1O` (centres unmarked) [Example 22], the IC50 worked out at 13 nM.

Regarding `Cc1nc(NC2(CO)CCC2)nnc1-c1ccc(C(F)(F)F)cc1O` [Example 23], the IC50 was determined as 23 nM.

For `Cc1nc(N[C@H]2[C@@H]3COC[C@@H]32)nnc1-c1ccc(C(F)(F)F)cc1O` [Example 24], the IC50 was found to be 40 nM.

`Cc1nc(N[C@@H]2CCCC[C@H]2O)nnc1-c1ccc(C#N)cc1O` [Example 25]: the IC50 came out at 77 nM.

In the case of `Cc1nc(N[C@H]2CC[C@H](O)CC2)nnc1-c1ccc(C(F)(F)F)cc1O` [Example 26], the IC50 stood at 62 nM.

Take `Cc1nc(NCc2cccnn2)nnc1-c1ccc(C(F)(F)F)cc1O` [Example 28]: the IC50 was determined as 630 nM.

Consider `Cc1nc(NC2(CO)COC2)nnc1-c1ccc(C(F)(F)F)cc1O` [Example 29], for which the IC50 turned out to be 84 nM.

As to `Cc1nc(N[C@@H]2CC[C@@H](O)C2)nnc1-c1ccc(C(F)(F)F)cc1O` [Example 30], the IC50 is 18 nM.

Consider `Cc1nc(N[C@@H]2CCOC[C@H]2O)nnc1-c1ccc(OC(F)(F)F)cc1O` [Example 32], for which the IC50 was found to be 10 nM.

For the compound `Cc1nc(NC(C)(C)CO)nnc1-c1ccc(C(F)(F)F)cc1O` [Example 33], the IC50 came to 150 nM.

In the case of `Cc1nc(NC2(CCO)CC2)nnc1-c1ccc(C(F)(F)F)cc1O` [Example 34], the IC50 was 49 nM.

As to `Cc1nc(N[C@@H]2CC[C@H](O)C2)nnc1-c1ccc(C(F)(F)F)cc1O` [Example 35], the IC50 turned out to be 50 nM.

As to `Cc1nc(N[C@@H]2CCCC[C@H]2O)nnc1-c1ccc(C(C)C)cc1O` [Example 36], the IC50 turned out to be 17 nM.

With `Cc1ccc(-c2nnc(N[C@@H]3CCCC[C@H]3O)nc2C)c(O)c1` [Example 37], the IC50 stood at 11 nM.

Take `Cc1nc(NC23CC(CO)(C2)C3)nnc1-c1ccc(C(F)(F)F)cc1O` [Example 38]: the IC50 is 11 nM.

Turning to `Cc1nc(N[C@@H]2C[C@H]3C[C@@H]2[C@@H](O)C3)nnc1-c1ccc(C(F)(F)F)cc1O` [Example 39], the IC50 came out at 19 nM.

As for `Cc1nc(N[C@@H]2CCCC[C@@H]2O)nnc1-c1ccc(C(F)(F)F)cc1O` [Example 40], the IC50 was 22 nM.

With `Cc1nc(N[C@H]2CCCC[C@@H]2O)nnc1-c1ccc(C(F)(F)F)cc1O` [Example 41], the IC50 came to 310 nM.

Consider `Cc1nc(N[C@@H]2CCCNC2=O)nnc1-c1ccc(C(F)(F)F)cc1O` [Example 42], for which the IC50 is 28 nM.

Consider `Cc1nc(N[C@@H]2CCNC2=O)nnc1-c1ccc(C(F)(F)F)cc1O` [Example 43], for which the IC50 is 19 nM.

In the case of `Cc1nc(N[C@H]2CCNC2=O)nnc1-c1ccc(C(F)(F)F)cc1O` [Example 44], the IC50 worked out at 7 nM.

As to `Cc1nc(N[C@H]2CCCNC2=O)nnc1-c1ccc(C(F)(F)F)cc1O` [Example 45], the IC50 turned out to be 24 nM.

Turning to `Cc1nc(N[C@@H]2CCCCNC2=O)nnc1-c1ccc(C(F)(F)F)cc1O` [Example 46], the IC50 was determined as 30 nM.

With `Cc1nc(N[C@@H]2CCCC[C@@]2(C)O)nnc1-c1ccc(C(F)(F)F)cc1O` [Example 47], the IC50 came to 8.8 nM.

For `Cc1nc(N[C@@H]2CCCC(F)(F)[C@H]2O)nnc1-c1ccc(C(F)(F)F)cc1O` [Example 48], the half-inhibitory concentration (IC50) turned out to be 34 nM.

As to `Cc1nc(N[C@H]2C[C@@](C)(O)C2)nnc1-c1ccc(Cl)cc1O` [Example 49], the IC50 was 14 nM.

On to `Cc1nc(N[C@H]2C[C@@](C)(O)C2)nnc1-c1ccc(OC(F)(F)F)cc1O` [Example 50], for which the IC50 is 31 nM.

On to `Cc1ccc(-c2nnc(N[C@H]3C[C@@](C)(O)C3)nc2C)c(O)c1` [Example 51], for which the IC50 came out at 33 nM.

For the compound `Cc1ccc(-c2nnc(N[C@@H]3CCOC[C@H]3O)nc2C)c(O)c1` [Example 52], the IC50 was found to be 21 nM.

For the compound `Cc1nc(N[C@@H]2CCCC[C@H]2O)nnc1-c1ccc(F)cc1O` [Example 53], the IC50 was determined as 63 nM.

For `Cc1nc(N[C@@H]2CCCC[C@@]2(C)O)nnc1-c1ccc(Cl)cc1O` [Example 54], the IC50 was found to be 7.3 nM.

For the compound `Cc1ccc(-c2nnc(N[C@@H]3CCCC[C@@]3(C)O)nc2C)c(O)c1` [Example 55], the IC50 came out at 11 nM.

In the case of `Cc1nc(NC[C@@H](C)O)nnc1-c1ccc(C2CC2)cc1O` [Example 56], the IC50 is 12 nM.

In the case of `Cc1nc(N[C@@H]2CCCC[C@@]2(C)O)nnc1-c1ccc(OC(F)(F)F)cc1O` [Example 58], the IC50 was found to be 9.3 nM.

Consider `COc1ccc(-c2nnc(N[C@H]3C[C@@](C)(O)C3)nc2C)c(O)c1` [Example 60], for which the IC50 is 38 nM.
